Source: patent US20220252575A1, “SCREENING METHOD AND TOXICITY EVALUATION METHOD” (Public University Corporation Yokohama City University, priority 2019, published 2022)

System: iPS cell-derived human hepatic sinusoidal endothelial cells
Assay: Detection of membrane attack complex in iPS cell-derived human hepatic sinusoidal endothelial cell with Oxaliplatin administration
Assay type: cell-based
Conditions: Oxaliplatin final concentration 20 μM vs solvent (ethanol), 3% human serum, 10% organoid culture supernatant

O=C1[O][Pt]2([NH][C@@H]3CCCC[C@H]3[NH]2)[O]C1=O [Oxaliplatin]
number of cells (quantified with DAPI as an index) (24 hr (FIG. 4A)): significant decrease in the number of cells
amount of MAC formed by human serum (24 hr (FIG. 4B)): significantly increased
